| logP | SMILES |
| --- | --- |
| 0.87 | NNC(=O)Nc1ccc(Cl)cc1 |
| -0.18 | NNC(=O)Nc1ccc([N+](=O)[O-])cc1 |
| -0.16 | NNC(=O)Nc1cccc(C(=O)O)c1 |
| -0.47 | NNC(=O)Nc1ccccc1[N+](=O)[O-] |
| 0.33 | NNC(=O)Nc1ccccc1O |
| -0.15 | COc1ccccc1NC(=O)NN |
| 0.68 | Cc1cccc(NC(=O)NN)c1 |
| -0.21 | NNC(=O)Nc1ccc(C(=O)O)cc1 |
| 0.69 | Cc1ccc(NC(=O)NN)cc1 |
| 0.17 | COc1ccc(NC(=O)NN)cc1 |
| -0.49 | NNC(=O)Nc1ccccc1C(=O)O |
| 0.16 | NNC(=O)Nc1ccccc1 |

From the OPERA property sets (Mansouri et al. 2018)
